We go through five compounds from patent publication US5206384A, “Actinonin derivatives and pharmaceutically acceptable salts thereof” (Zaidan Hojin Biseibutsu Kagaku Kai, priority 1990, dated 1993).

Assay [1] deals with angiotensin-conversion enzyme (ACE) (Homo sapiens, UniProt P12821). Kind of assay: ACE-inhibitory activity. The conditions noted are these: for IC50: method of Analytical Biochemistry, 84, 361 (1978). The format is biochemical. As for the experimental part: Thus, we have tested the enzyme-inhibitory activities of some typical compounds of this invention against angiotensin-conversion enzyme (ACE) which participates in the control of blood-pressure in mammalian animals by converting angiotensin I, a peptide-type hormone in brain, into angiotensin II. The determination of ACE-inhibitory activity was carried out in accordance with the method described in "Analytical Biochemistry", 84, 361 (1978) and the activity was estimated in term of the concentration (mole concentration, M) of each compound tested at which the activity of the enzyme can be inhibited by 50% (IC50).

The next assay has as its target enkephalinase (Homo sapiens, UniProt P08473). As to the kind of experiment: Enkephalinase-inhibitory activity. The format is biochemical. The note with it: for IC50: concentration which inhibits enzymatic activity of enkephalinase by 50%. The method, then: IC50 concentrations (M concentration) of some typical compounds of this invention which can inhibit enzymatic activity of enkephalinase by 50% were measured.

For another assay, the system named is peptidases. The note with it: Journal of Antibiotics, 38, 1629-1630 (1985); U.S. Pat. No. 4,663,342; cited from earlier work.

For orientation: IC50 means the concentration needed to halve the response being measured. Low readings indicate inhibition by little substance, high ones a need for much substance.

Sequence of angiotensin-conversion enzyme (ACE) (P12821 30-1306, species assumed): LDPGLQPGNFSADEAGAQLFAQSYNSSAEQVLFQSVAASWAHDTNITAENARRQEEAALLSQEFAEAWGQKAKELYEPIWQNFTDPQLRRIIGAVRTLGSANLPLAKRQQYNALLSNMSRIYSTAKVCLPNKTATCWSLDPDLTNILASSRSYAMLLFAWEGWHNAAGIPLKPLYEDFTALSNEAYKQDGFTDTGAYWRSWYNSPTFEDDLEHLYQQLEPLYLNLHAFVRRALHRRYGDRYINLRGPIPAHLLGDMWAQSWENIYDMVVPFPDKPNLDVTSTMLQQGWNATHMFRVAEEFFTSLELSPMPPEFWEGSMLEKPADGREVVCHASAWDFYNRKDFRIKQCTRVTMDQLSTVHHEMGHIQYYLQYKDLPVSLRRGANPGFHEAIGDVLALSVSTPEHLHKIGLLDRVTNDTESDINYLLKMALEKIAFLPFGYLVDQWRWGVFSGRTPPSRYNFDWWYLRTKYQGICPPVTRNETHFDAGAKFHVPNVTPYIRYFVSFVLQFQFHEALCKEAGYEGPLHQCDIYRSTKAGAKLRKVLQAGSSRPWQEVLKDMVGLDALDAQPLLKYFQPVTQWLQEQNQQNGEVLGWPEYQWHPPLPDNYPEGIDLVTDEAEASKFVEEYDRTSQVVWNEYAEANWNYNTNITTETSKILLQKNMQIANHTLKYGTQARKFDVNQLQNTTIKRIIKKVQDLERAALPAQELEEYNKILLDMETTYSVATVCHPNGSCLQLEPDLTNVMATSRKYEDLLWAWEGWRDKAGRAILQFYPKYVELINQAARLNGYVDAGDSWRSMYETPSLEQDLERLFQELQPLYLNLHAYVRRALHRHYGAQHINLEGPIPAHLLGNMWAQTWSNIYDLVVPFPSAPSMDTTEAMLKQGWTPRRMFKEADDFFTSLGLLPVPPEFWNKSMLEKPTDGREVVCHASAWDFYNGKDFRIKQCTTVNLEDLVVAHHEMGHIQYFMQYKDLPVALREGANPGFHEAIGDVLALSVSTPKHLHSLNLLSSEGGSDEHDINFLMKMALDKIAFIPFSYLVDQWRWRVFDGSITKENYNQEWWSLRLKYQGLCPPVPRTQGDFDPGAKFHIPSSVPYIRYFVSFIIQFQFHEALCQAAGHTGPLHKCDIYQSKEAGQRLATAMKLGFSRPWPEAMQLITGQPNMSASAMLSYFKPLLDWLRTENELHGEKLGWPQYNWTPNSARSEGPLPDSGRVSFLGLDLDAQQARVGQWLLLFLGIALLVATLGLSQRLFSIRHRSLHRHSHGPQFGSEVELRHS
Sequence of enkephalinase (P08473 whole entry, species assumed): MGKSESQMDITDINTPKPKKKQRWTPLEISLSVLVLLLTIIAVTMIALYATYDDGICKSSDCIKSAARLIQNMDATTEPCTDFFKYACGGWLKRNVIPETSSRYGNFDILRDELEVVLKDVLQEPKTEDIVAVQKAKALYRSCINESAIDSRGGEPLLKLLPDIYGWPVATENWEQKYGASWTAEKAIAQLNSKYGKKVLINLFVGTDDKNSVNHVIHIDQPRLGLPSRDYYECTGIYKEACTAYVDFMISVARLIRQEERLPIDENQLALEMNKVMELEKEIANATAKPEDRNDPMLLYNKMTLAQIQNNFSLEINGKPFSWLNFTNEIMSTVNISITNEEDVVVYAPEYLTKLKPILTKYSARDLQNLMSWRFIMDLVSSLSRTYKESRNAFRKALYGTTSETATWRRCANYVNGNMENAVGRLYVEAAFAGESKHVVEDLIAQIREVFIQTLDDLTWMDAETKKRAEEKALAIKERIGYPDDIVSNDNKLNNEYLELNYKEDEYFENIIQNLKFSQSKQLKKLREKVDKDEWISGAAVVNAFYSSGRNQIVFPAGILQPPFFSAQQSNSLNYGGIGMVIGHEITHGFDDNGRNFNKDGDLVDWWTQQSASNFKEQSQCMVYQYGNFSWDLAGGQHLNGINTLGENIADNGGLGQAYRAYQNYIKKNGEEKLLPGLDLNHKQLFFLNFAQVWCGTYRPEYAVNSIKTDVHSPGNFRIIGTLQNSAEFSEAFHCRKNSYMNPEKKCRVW

Turning to `CCCCC[C@H](CC(=O)NOS(=O)(=O)O)C(=O)NC(C(=O)N1CCC[C@H]1COS(=O)(=O)O)C(C)C` (stereo in doubt) [Compound of formula (Ia), (2R)-2-(Sulfoxyaminocarbonylmethyl)heptanoyl-L-valyl-(2S)-2-(sulfoxymethyl)pyrrolidine], the IC50 in assay [1] worked out at 92 µM; at enkephalinase it was 14 µM.
Take `CCCCC[C@H](CC(=O)NO)C(=O)NC(C(=O)N1CCC[C@H]1C(=O)O)C(C)C` (stereo in doubt) [Compound of formula (Ib), (2R)-2-(Hydroxyaminocarbonylmethyl)heptanoyl-L-valyl-L-proline]: the half-maximal inhibitory concentration (IC50) in assay [1] was determined as 28 µM; on enkephalinase it was 0.31 µM. In addition, the “enkephalinase-inhibitory activity, times stronger than that of actinonin” value on enkephalinase (relative to actinonin as reference, from Table 2) is listed as “more than 10 times”.
`CCCCC[C@H](CC(=O)NO)C(=O)NC(C(=O)N1CCC[C@H]1COS(=O)(=O)O)C(C)C` (stereo in doubt) [Compound of formula (Ig), (2R)-2-(Hydroxyaminocarbonylmethyl)heptanoyl-L-valyl-(2S)-2-(sulfoxymethyl)pyrrolidine]: the IC50 worked out at 430 µM in assay [1] and 4.1 µM against enkephalinase.
On to `CCCCC[C@H](CC(=O)NO)C(=O)N[C@H](C(=O)N1CCC[C@H]1CO)C(C)C` [Actinonin, actinonin], for which, in assay [1], the “inhibitory activities against angiotensin-converting enzymes (in words)” value is given as “low levels of inhibitory activity”. Moreover, the IC50 in assay [1] was 590 µM; against enkephalinase it was 5.6 µM. In the assay with peptidases, the “inhibits a wide variety of peptidases (in words)” value was “inhibits a wide variety of peptidases”.
On to `CCCCC[C@H](CC(=O)NO)C(=O)N[C@H](C(=O)N1CCC[C@H]1C(=O)NO)C(C)C` [Compound of formula (Id), (2R)-2-(Hydroxyaminocarbonylmethyl)heptanoyl-L-valyl-L-proline.hydroxamide], for which the results for the IC50 (in assay [1]; against enkephalinase) were 0.53 µM and 1.2 µM, respectively.
